pEC50, pIC50: −log10 of the molar value. “And” between values parts separate entries of the source, which are not always exact repeats. Equal entries are not always repeated.
Tests used:
[1] = test system: NQO1 activation in BEAS-2B cells; test: BEAS-2B cellular MTT assay of NQO1 activation, 0% HSA; format: cell-based
Outline: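 For the 0% HSA condition, cells were seeded into collagen plates in HSA-free medium. Culture was BEAS-2B in BEBM plus BEGM SingleQuots lacking GA-1000, held under 70% confluence, at a seeding density reaching 95-100% confluence by 48 h.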

[2] = test system: NQO1 activation in BEAS-2B cells; test: BEAS-2B cellular MTT assay of NQO1 activation, 0.3% HSA; format: cell-based
Outline: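 MTT read-out in BEAS-2B cells grown in BEBM with SingleQuots, no GA-1000, kept below 70% confluence; plates coated with collagen, with 0.3% or 0% HSA medium, seeded to 95-100% confluency at 48 h, 37 °C, 5% CO2.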

[3] = target: HIS-Keap1 full length / Biotin-Nrf2 (16-mer) (Homo sapiens, UniProt Q14145); test: biochemical
Chain of HIS-Keap1 full length / Biotin-Nrf2 (16-mer) (Q14145 whole entry): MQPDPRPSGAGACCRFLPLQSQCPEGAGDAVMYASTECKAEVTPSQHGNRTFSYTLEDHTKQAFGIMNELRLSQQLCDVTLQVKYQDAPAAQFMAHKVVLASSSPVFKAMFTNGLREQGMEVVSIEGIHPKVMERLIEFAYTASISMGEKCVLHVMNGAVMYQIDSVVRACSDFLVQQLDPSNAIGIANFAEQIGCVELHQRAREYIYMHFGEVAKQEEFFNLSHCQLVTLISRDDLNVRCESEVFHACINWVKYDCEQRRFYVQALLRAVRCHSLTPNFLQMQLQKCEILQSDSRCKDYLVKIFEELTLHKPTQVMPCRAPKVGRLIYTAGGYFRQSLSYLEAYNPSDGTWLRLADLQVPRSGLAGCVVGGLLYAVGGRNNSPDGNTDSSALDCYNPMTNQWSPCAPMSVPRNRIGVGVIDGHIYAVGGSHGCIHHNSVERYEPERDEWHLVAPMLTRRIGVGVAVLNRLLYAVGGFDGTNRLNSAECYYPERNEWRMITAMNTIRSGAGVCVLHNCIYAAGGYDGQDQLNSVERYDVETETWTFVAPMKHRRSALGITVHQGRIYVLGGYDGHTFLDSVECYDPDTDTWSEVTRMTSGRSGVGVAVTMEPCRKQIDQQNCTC

[4] = Homo sapiens, serum free, read-out: BEAS EC50 (nM) serum free
[5] = Homo sapiens, BEAS+, read-out: BEAS+ EC50
[6] = serum free, read-out: BEAS EC50 (nM) serum free
[7] = Homo sapiens, Serum Free W, read-out: BEAS EC50 (nM) Serum Free W
[8] = Serum Free W, read-out: BEAS EC50 (nM) Serum Free W
[9] = BEAS+ W, read-out: BEAS+ W EC50
[10] = Homo sapiens, BEAS+ W, read-out: BEAS+ W EC50

Row | SMILES | EC50 [1, 4] [nM] | pEC50 [2, 5] | pIC50 [3] | EC50 [1, 6] [nM] | pEC50 ([2]; BEAS+, read-out: BEAS+ EC50) | EC50 [1, 7] [nM] | EC50 [1, 8] [nM] | pEC50 [2, 9] | pEC50 [2, 10]
1 | Cc1cc2cc(C)c1C(=O)N1CCc3ccc(cc3C1)C(CC(=O)O)c1ccc3c(c1)nnn3CCCCCCO2 (stereo not drawn) [Compound 293] | 141 | 6.68 | > 10.00 |  |  |  |  |  | 
2 | Cc1cc2ccc1C(=O)N1CCc3ccc(cc3C1)[C@@H]([C@H](C)C(=O)O)c1ccc3c(c1)nnn3CCCCCCO2 [Compound 294] | 450 | 6.09 | 7.66 and 7.76 |  |  |  |  |  | 
3 | Cc1cc2ccc1C(=O)N1CCc3ccc(cc3C1)C(CC(=O)O)c1ccc3c(nnn3CCCCCCO2)c1C (stereo not drawn) [Compound 297] | 1.8 | 8.54 | 9.70 |  |  |  |  |  | 
4 | Cc1cc2ccc1C(=O)N1CCc3ccc(cc3C1)C(C(C)(C)C(=O)O)c1ccc3c(c1)nnn3CCCCCCO2 (stereo not drawn) [Compound 299] | 0.6 | 8.44 | > 10.00 |  |  |  |  |  | 
5 | O=C(O)CC1c2ccc(nc2)OCCCCCc2ccc(cc2)C(=O)N2CCc3ccc1cc3C2 (stereo not drawn) [Compound 300] | 3.1 | 7.97 | > 10.00 | 5.4 | 8.10 |  |  |  | 
6 | Cc1cc2ccc1C(=O)N1CCc3ccc(cc3C1)C(CC(=O)O)c1ccc(nc1)OCCCCCCO2 (stereo not drawn) [Compound 301] | 80.6 | 6.50 | 8.17 and 8.22 | 144 | 6.67 |  |  |  | 
7 | Cc1c2ccc3c1nnn3CCCCCOc1ccc(c(Cl)c1)C(=O)N1CCc3ccc(cc3C1)C2CC(=O)O (stereo not drawn) [Compound 302] | 129 | 6.87 | 9.10 and 9.05 | 213 | 6.71 |  |  |  | 
8 | Cc1c2ccc3c1nnn3CCCCC(F)(F)Oc1ccc(cc1)C(=O)N1CCc3ccc(cc3C1)C2CC(=O)O (stereo not drawn) [Compound 304] | 18.3 | 7.60 | > 10.00 and 9.70 |  | 7.54 |  |  |  | 
9 | O=C(O)CC1c2ccc3c(c2)CN(CC3)C(=O)c2ccc(cc2Cl)OCCCCCCn2nnc3cc1ccc32 (stereo not drawn) [Compound 305] | 345 | 6.19 | > 10.00 |  | 6.13 |  |  |  | 
10 | Cc1c2ccc3c1nnn3CCCCCOc1ccc(c(F)c1F)C(=O)N1CCc3ccc(cc3C1)C2CC(=O)O (stereo not drawn) [Compound 306] | 68.1 | 6.87 | 10.00 and > 10.00 |  | 7.05 |  |  |  | 
11 | Cc1c2ccc3c1nnn3CCCCCCc1ccc(cc1)C(=O)N1CCc3ccc(cc3C1)C2CC(=O)O (stereo not drawn) [Compound 307] | 0.4 | 8.43 | 9.70 |  | 8.28 |  |  |  | 
12 | Cn1c2cc3cc(ccc31)OCCCCCCn1nnc3cc(ccc31)C(CC(=O)O)c1ccc3c(c1)CN(CC3)C2=O (stereo not drawn) [Compound 310] | 698 | 5.04 | 9.52 and > 10.00 |  | 5.02 |  |  |  | 
13 | Cc1c2ccc3c1nnn3CCCCCOc1cc(F)c(c(F)c1)C(=O)N1CCc3ccc(cc3C1)C2CC(=O)O (stereo not drawn) [Compound 314] | 2.6 | 6.96 | 8.36 and 8.74 |  |  |  |  |  | 
14 | Cc1c2ccc3c1nnn3CCCCCCOc1cc(F)c(c(F)c1)C(=O)N1CCc3ccc(cc3C1)C2CC(=O)O (stereo not drawn) [Compound 315] | 2.2 | 7.59 | 9.15 and 9.52 |  |  |  |  |  | 
15 | Cc1c2ccc3c1nnn3CCCCCOc1ccc(c(F)c1)C(=O)N1CCc3ccc(cc3C1)C2CC(=O)O (stereo not drawn) [Compound 316] | 141 | 7.11 | 8.80 and 9.05 |  |  |  |  |  | 
16 | Cc1c2ccc3c1nnn3CCCCCCOc1ccc(c(F)c1F)C(=O)N1CCc3ccc(cc3C1)C2CC(=O)O (stereo not drawn) [Compound 318] | 20.4 | 7.23 | 9.10 |  |  |  |  |  | 
17 | O=C(O)CC1c2ccc(nc2)OCCCCCCOc2ccc(cc2)C(=O)N2CCc3ccc1cc3C2 (stereo not drawn) [Compound 319] | 432 | 5.84 | 7.00 and 6.97 |  |  |  |  |  | 
18 | O=C(O)CC1c2ccc3c(c2)CN(CC3)C(=O)c2ccc(c(F)c2F)OCCCCCCn2nnc3cc1ccc32 (stereo not drawn) [Compound 320] | 332 | 6.34 | > 10.00 |  |  |  |  |  | 
19 | O=C(O)CC1c2ccc3c(c2)CN(CC3)C(=O)c2c(F)cc(cc2F)OCCCCCCn2nnc3cc1ccc32 (stereo not drawn) [Compound 321] | 75.7 | 7.05 | 9.40 and 10.00 |  |  |  |  |  | 
20 | O=C(O)CC1c2ccc3c(c2)CN(CC3)C(=O)c2ccc(cc2F)OCCCCCCn2nnc3cc1ccc32 (stereo not drawn) [Compound 322] | 176 | 6.64 | 9.10 and 9.00 |  |  |  |  |  | 
21 | C[C@H](C(=O)O)[C@H]1c2ccc3c(c2)CN(CC3)C(=O)c2ccc(cc2)OCCCCCCn2nnc3cc1ccc32 [Compound 323] | 135 | 6.41 | 8.92 and 8.74 |  |  |  |  |  | 

Row | SMILES | EC50 [1, 4] [nM] | pEC50 [2, 5] | pIC50 [3] | EC50 [1, 6] [nM] | pEC50 ([2]; BEAS+, read-out: BEAS+ EC50) | EC50 [1, 7] [nM] | EC50 [1, 8] [nM] | pEC50 [2, 9] | pEC50 [2, 10]
22 | C[C@@H](C(=O)O)[C@H]1c2ccc3c(c2)CN(CC3)C(=O)c2ccc(cc2)OCCCCCCn2nnc3cc1ccc32 [Compound 324] | 6 | 7.74 | 9.40 |  |  |  |  |  | 
23 | CC(C(=O)O)C1c2ccc3c(c2)CN(CC3)C(=O)c2ccc(cc2)OCCCCCn2nnc3cc1ccc32 (stereo not drawn) [Compound 325] | 2.9 | 8.40 | > 10.00 |  |  |  |  |  | 
24 | Cc1cc2ccc1C(=O)N1CCc3ccc(cc3C1)[C@@H](CC(=O)O)c1ccc3c(c1)nnn3CCCCCCO2 [Compound 327] | 52.9 | 6.75 | 9.10 and 8.64 | 46.9 |  |  |  |  | 
25 | Cc1c2ccc3c1nnn3CCCCCOc1ccc(cc1)C(=O)N1CCc3ccc(cc3C1)C2CC(=O)O (stereo not drawn) [Compound 331] | 47.4 | 7.39 | 8.77 and 8.37 and 8.59 and 7.96 |  |  |  |  |  | 
26 | Cc1cc2ccc1C(=O)N1CCc3ccc(cc3C1)C(CC(=O)O)c1ccc3c(c1)nnn3CCCCCCO2 (stereo not drawn) [Compound 332] | 27.4 | 7.20 | > 10.00 |  |  |  |  |  | 
27 | Cc1cc2ccc1C(=O)N1CCc3ccc(cc3C1)C(CC(=O)O)c1ccc3c(nnn3CCCCCO2)c1C (stereo not drawn) [Compound 335] | 35 | 7.44 | 8.60 and 8.54 and 8.19 and 8.89 |  |  |  |  |  | 
28 | O=C(O)CC1c2ccc3c(c2)CN(CC3)C(=O)c2ccc(c3ccccc23)OCCCCCn2nnc3cc1ccc32 (stereo not drawn) [Compound 337] | 1890 | 5.60 | 9.15 and 9.10 |  |  |  |  |  | 
29 | Cc1cc2ncc1[C@H](CC(=O)O)c1ccc3c(c1)CN(CC3)C(=O)c1ccc(cc1)CCOCCO2 [Compound 350] |  |  | 7.94 and 8.00 and 8.01 and 7.99 |  |  | 161 | 145 | 6.37 | 6.56
30 | Cc1cc2ncc1[C@@H](CC(=O)O)c1ccc3c(c1)CN(CC3)C(=O)c1ccc(cc1)CCOCCO2 [Compound 351] |  |  | 6.19 and 6.21 and 6.40 and 6.38 |  |  | > 1000 | 1780 | 5.54 and 5.55 | 5.43
31 | Cc1c2cnc3c1nnn3CCCC/C=C/Cc1ccc(cc1)C(=O)N1CCc3ccc(cc3C1)[C@H]2CC(=O)O [Compound 352] |  |  | 8.17 and 8.11 |  |  | 21.9 | 33 | 6.32 | 6.38
32 | Cc1c2cnc3c1nnn3CCCC/C=C/Cc1ccc(cc1)C(=O)N1CCc3ccc(cc3C1)[C@@H]2CC(=O)O [Compound 353] |  |  | 9.30 |  |  | 16.8 | 19.1 | 6.96 | 7.14
33 | Cc1c2cnc3c1nnn3CCCCCc1cccc(c1)C(=O)N1CCc3ccc(cc3C1)C2CC(=O)O (stereo not drawn) [Compound 354] |  |  | 7.70 and 7.86 |  |  | > 1000 |  | 5.67 | 5.57
34 | Cc1c2cnc3c1nnn3CCCCCCc1cccc(c1)C(=O)N1CCc3ccc(cc3C1)C2CC(=O)O (stereo not drawn) [Compound 355] |  |  | 8.04 and 8.03 |  |  | 810 | 1300 | 5.41 | 5.33
35 | Cc1c2ccc3c1nnn3CCCOCCc1ccc(c(F)c1)C(=O)N1CCc3ccc(cc3C1)[C@H]2CC(=O)O [Compound 357] |  |  | 7.94 and 7.96 |  |  | > 1000 | 969 | 5.77 | 5.71
36 | Cc1c2ccc3c1nnn3CCCCc1ccc3c(cn(C)c3c1)C(=O)N1CCc3ccc(cc3C1)C2CC(=O)O (stereo not drawn) [Compound 359] |  |  | 8.13 and 8.09 |  |  | > 1000 |  |  | < 5.00
37 | Cc1c2ccc3c1nnn3C/C=C/COCc1ccc(c(F)c1)C(=O)N1CCc3ccc(cc3C1)C2CC(=O)OCCO (stereo not drawn) [Compound 361] |  |  | 6.04 and 6.13 |  |  | > 1000 |  | 5.89 | 5.78
38 | Cc1c2ccc3c1nnn3CCCCCc1ccc3c(c1)c(cn3C)C(=O)N1CCc3ccc(cc3C1)C2CC(=O)O (stereo not drawn) [Compound 362, 2-(5,33-dimethyl-2-oxo-1,5,15,16,17-pentazaheptacyclo[22.5.3.26,9.118,22.03,7.015,19.027,31]pentatriaconta-3,6,8,16,18(33),19,21,24(32),25,27(31),34-undecaen-23-yl)acetic Acid] | 3250 | < 5.00 | 7.30 and 7.33 | 3760 |  |  |  |  | 
39 | Cc1c2ccc3c1nnn3CCOCCCc1ccc(c(F)c1)C(=O)N1CCc3ccc(cc3C1)[C@@H]2CC(=O)O [Compound 364] |  |  | 8.77 and 8.80 |  |  | 56 | 68.3 | 7.03 | 7.01
40 | Cc1c2ccc3c1nnn3CCOC/C=C/c1ccc(c(F)c1)C(=O)N1CCc3ccc(cc3C1)C2CC(=O)O (stereo not drawn) [Compound 365] |  |  | 8.47 and 8.44 |  |  | 90 | 171 | 6.67 | 6.73
41 | Cc1c2ccc3c1nnn3CCCOCCOc1cc(F)c(c(F)c1)C(=O)N1CCc3ccc(cc3C1)[C@@H]2[C@H](C)C(=O)O [Compound 366] | 580 | 5.97 | 8.25 and 8.28 | 442 | 5.93 |  |  |  | 
